Experimental findings from US20100256357A1, “HETEROCYCLES USEFUL AS INHIBITORS OF CARBONIC ANHYDRASE” (Agouron Pharmaceuticals, Inc., priority 2006, published 2010) are described below.

Like-named read-outs stand apart in the source and are kept apart here.

In the assay the target is T1, human CA-II (Homo sapiens, UniProt P00918).
T1 construct: purchased Sigma-Aldrich C6165
Briefly: Carbonic Anhydrase-II (CA-II) Fluorimetric Assay-IC50 Determination. The format is biochemical. To be noted: for inhibition at 0.01 µM: at 10 nM (c7); for inhibition at 0.01 µM / inhibition at 0.1 µM: read-out: CA-II % inhibition at concentration of column 7; for inhibition at 0.1 µM: at 100 nM (c7). The procedure:
Carbonic Anhydrase-II (CA-II) Fluorimetric Assay-IC50 Determination
Compounds were diluted in DMSO at the concentration of 1 mM, then 50 μM and transferred to a 96-well plate for further dilutions (1:3 dilution, 11 points) in duplicate. Highest final concentration of compound in this CA-II Fluorimetric assay is 1 μM. Assays were conducted in a final volume of 100 μL in 50 mM Tris/HCl (pH 7.6), 100 mM Na2SO4 and 0.005% Tween-20 in a 96-well black assay plate. Fluorescein diacetate was used as the substrate. Enzyme inhibition was determined by pipetting 8 μL of human CA-II (5 nM, from Sigma-Aldrich, product #: C6165) into assay plate contained 2 μL of compound and 2 μL of substrate (10 μM) in 88 μL of assay buffer. The rate of the hydrolysis of fluorescein diacetate were measured spectrophometrically at 488 nm (excitation), 538 nm (emission) and 530 nm (cutoff) using a Molecular Devices SpectraMax M2 fluorescence reader at 25° C.

The mark [1] stands for this setting: given instead of Kd (ND), read-out: CA-II IC50.
The mark [2] stands for this setting: Kd ND, IC50 given instead, read-out: CA-II IC50 (where Kd is ND).

In the case of `NS(=O)(=O)c1ccc(-n2nc(C(=O)N3CCCC3Cc3cccnc3)nc2Cc2ccccc2)cc1` (stereo not drawn) [Example R-68, 4-(5-benzyl-3-{[2-(pyridin-3-ylmethyl)pyrrolidin-1-yl]carbonyl}-1H-124-triazol-1-yl)benzenesulfonamide], the inhibition at 0.01 µM is 92%. Further, the half-maximal inhibitory concentration (IC50) under setting [1] came to 3.75 nM.
For `CCN(CCC#N)C(=O)c1nc(Cc2ccccc2)n(-c2ccc(S(N)(=O)=O)cc2)n1` [Example R-41, 1[4-(aminosulfonyl)phenyl]-5-benzyl-N-(2-cyanoethyl)-N-ethyl-1H-124-triazole-3-carboxamide], the inhibition at 0.1 µM is 99%.
For the compound `Cc1ncsc1CCN(C)C(=O)c1nc(Cc2ccccc2)n(-c2ccc(S(N)(=O)=O)cc2)n1` [Example R-65, 1-[4-(aminosulfonyl)phenyl]-5-benzyl-N-methyl-N-[2-(4-methyl-13-thiazol-5-yl)ethyl]-1H-124-triazole-3-carboxamide], the inhibition at 0.01 µM is 90%.
On the same count and under the same terms, to `NS(=O)(=O)c1ccc(-n2nc(C(=O)N3CCc4conc4CC3)nc2Cc2ccccc2)cc1` [Example R-61, 4-[5-benzyl-3-(4578-tetrahydro-6H-isoxazolo[34-d]azepin-6-ylcarbonyl)-1H-124-triazol-1-yl]benzenesulfonamide] belongs 94%.
As to `CN(C(=O)c1nc(Cc2ccccc2)n(-c2ccc(S(N)(=O)=O)cc2)n1)C(C1CC1)C1CC1` [Example R-28, 1-[4-(aminosulfonyl)phenyl)-5-benzyl-N-(dicyclopropylmethyl)-N-methyl-1H-124-triazole-3-carboxamide], the inhibition at 0.1 µM worked out at 99%.
Consider `CN(CC1CCCCO1)C(=O)c1nc(Cc2ccccc2)n(-c2ccc(S(N)(=O)=O)cc2)n1` (stereo not drawn) [Example R-106, 1-[4-(aminosulfonyl)phenyl]-5-benzyl-N-methyl-N-(tetrahydro-2H-pyran-2-ylmethyl)-1H-124-triazole-3-carboxamide], for which, under setting [2], the IC50 turned out to be 3.28 nM.
For the compound `Cc1noc(C2CCN(C(=O)c3nc(Cc4ccccc4)n(-c4ccc(S(N)(=O)=O)cc4)n3)C2)n1` (stereo not drawn) [Example R-63, 4-(5-benzyl-3-{[3-(3-methyl-124-oxadiazol-5-yl)pyrrolidin-1-yl]carbonyl}-1H-124-triazol-1-yl)benzenesulfonamide], the inhibition at 0.01 µM is 95%.
Still for that read-out and setting: to `CCCc1cc(CN(C)C(=O)c2nc(Cc3ccccc3)n(-c3ccc(S(N)(=O)=O)cc3)n2)n[nH]1` [Example R-51, 1-[4-(aminosulfonyl)phenyl]-5-benzyl-N-methyl-N-[(5-propyl-1H-pyrazol-3-yl)methyl]-1H-124-triazole-3-carboxamide] belongs 97%.
Regarding `Cc1cc(C)n(CCN(C)C(=O)c2nc(Cc3ccccc3)n(-c3ccc(S(N)(=O)=O)cc3)n2)n1` [Example R-66, 1-[4-(aminosulfonyl)phenyl]-5-benzyl-N-[2-(35-dimethyl-1H-pyrazol-1-yl)ethyl]-N-methyl-1H-124-triazole-3-carboxamide], the inhibition at 0.01 µM came to 88%. Besides, under setting [1], the half-maximal inhibitory concentration (IC50) is 3.55 nM.
In the case of `NS(=O)(=O)c1ccc(-n2nc(C(=O)N3CC(CO)C(c4ccccn4)C3)nc2Cc2ccccc2)cc1` (stereo not drawn) [Example R-59, 4-(5-benzyl-3-{[(3R4R)-3-(hydroxymethyl)-4-pyridin-2-ylpyrrolidin-1-yl]carbonyl}-1H-124-triazol1-yl)benzenesulfonamide], the inhibition at 0.01 µM turned out to be 97%.
For `NS(=O)(=O)c1ccc(-n2nc(C(=O)N3CC4CCCC3C4)nc2Cc2ccccc2)cc1` (stereo not drawn) [Example R-26, 4-[3-(6-azabicyclo[3.2.1]oct-6-ylcarbonyl)-5-benzyl-1H-124-triazol-1-yl]bezenesulfonamide], the inhibition at 0.1 µM was 99%. Further, the IC50 under setting [1] worked out at 2.84 nM.
The like results for `CCc1ccc(CN(C)C(=O)c2nc(Cc3ccccc3)n(-c3ccc(S(N)(=O)=O)cc3)n2)cc1` [Example R-37, 1-[4-(aminosulfonyl)phenyl]-5-benzyl-N-(4-ethylbenzyl)-N-methyl-1H-124-triazole-3-carboxamide] were, in that order, 99% and 2.89 nM.
The like results for `Cc1ccc(CN(C)C(=O)c2nc(Cc3ccccc3)n(-c3ccc(S(N)(=O)=O)cc3)n2)cc1` [Example R-38, 1-[4-(aminosulfonyl)phenyl]-5-benzyl-N-methyl-N-(4-methylbenzyl)-1H-124-triazole-3-carboxamide] were, in that order, 100% and 3.13 nM.
Consider `NS(=O)(=O)c1ccc(-n2nc(C(=O)N3C[C@@H](F)[C@H](F)C3)nc2Cc2ccccc2)cc1` [Example R-111, 4-(5-benzyl-3-{[(3R4R)-34-difluoropyrrolidin-1-yl]carbonyl}-1H-124-triazol-1-yl)benzenesulfonamide], for which the IC50 under setting [2] stood at 3.14 nM.
For `CCN(Cc1ccccc1)C(=O)c1nc(Cc2ccccc2)n(-c2ccc(S(N)(=O)=O)cc2)n1` [Example R-102, 1-[4-(aminosulfonyl)phenyl]-N5-dibenzyl-N-ethyl-1H-124-triazole-3-carboxamide], the IC50 under setting [2] came out at 3 nM.
On to `NS(=O)(=O)c1ccc(-n2nc(C(=O)N3CCCCC3Cc3ccccc3)nc2Cc2ccccc2)cc1` (stereo not drawn) [Example R-53, 4-(5-benzyl-3-[(2-benzylpiperidin-1-yl)carbonyl]-1H-124-triazol-1-yl)benzenesulfonamide], for which the inhibition at 0.01 µM stood at 92%. Moreover, the IC50 under setting [1] came out at 3.36 nM.
For `Cc1nc(CN(C)C(=O)c2nc(Cc3ccccc3)n(-c3ccc(S(N)(=O)=O)cc3)n2)cs1` [Example R-60, 1-[4-(aminosulfonyl)phenyl]-5-benzyl-N-methyl-N-[(2-methyl-13-thiazol-4-yl)methyl]-1H-124-triazole-3-carboxamide], the inhibition at 0.01 µM came to 92%.
Still for that read-out and setting: to `C[C@@H]([C@@H](O)c1ccccc1)N(C)C(=O)c1nc(Cc2ccccc2)n(-c2ccc(S(N)(=O)=O)cc2)n1` [Example R-47, 1-[4-(aminosulfonyl)phenyl]-5-benzyl-N-[(1S2S)-2-hydroxy-1-methyl-2-phenylethyl]-N-methyl-1H-124-triazole-3-carboxamide] belongs 90%.
With `Cc1cc(CN(C)C(=O)c2nc(Cc3ccccc3)n(-c3ccc(S(N)(=O)=O)cc3)n2)on1` [Example R-64, 1-[4-(aminosulfonyl)phenyl]-5-benzyl-N-methyl-N-[(3-methylisoxazol-5-yl)methyl]-1H-124-triazole-3-carboxamide], the inhibition at 0.01 µM came out at 94%. The concentration for half-maximal inhibition (IC50) under setting [1] turned out to be 2.95 nM.
`NS(=O)(=O)c1ccc(-n2nc(C(=O)N3CCC(c4ccccn4)C3)nc2Cc2ccccc2)cc1` (stereo not drawn) [Example R-55, 4-(5-benzyl-3-[(3-pyridin-2-ylpyrrolidin-1-yl)carbonyl]-1H-124-triazol-1-yl)benzenesulfonamide]: the inhibition at 0.01 µM was found to be 97%.
Turning to `COc1cccc(CN(C)C(=O)c2nc(Cc3ccccc3)n(-c3ccc(S(N)(=O)=O)cc3)n2)c1` [Example R-103, 1-[4-(aminosulfonyl)phenyl]-5-benzyl-N-(3-methoxybenzyl)-N-methyl-1H-124-triazole-3-carboxamide], the half-inhibitory concentration (IC50) under setting [2] came out at 3.12 nM.
On to `CC1(c2ccccc2)CN(C(=O)c2nc(Cc3ccccc3)n(-c3ccc(S(N)(=O)=O)cc3)n2)CCO1` (stereo not drawn) [Example R-46, 4-{5-benzyl-3-[(2-methyl-2-phenylmorpholin-4-yl)carbonyl]-1H-124-triazol-1-yl}benzenesulfonamide], for which the inhibition at 0.01 µM turned out to be 96%.
`NS(=O)(=O)c1ccc(-n2nc(C(=O)N3CC(Cc4ccccc4)C3)nc2Cc2ccccc2)cc1` [Example R-91, 4-{5-benzyl-3-[(3-benzylazetidin-1-yl)carbonyl]-1H-124-triazol-1-yl}benzenesulfonamide]: the IC50 under setting [2] came out at 3.19 nM.
For `NS(=O)(=O)c1ccc(-n2nc(C(=O)N3CCC(c4cccnc4)C3)nc2Cc2ccccc2)cc1` (stereo not drawn) [Example R-69, 4-{5-benzyl-3-[(3-pyridin-3-ylpyrrolidin-1-yl)carbonyl]-1H-124-triazol-1-yl}benzenesulfonamide], the inhibition at 0.01 µM came to 97%. For the same compound, under setting [1], the IC50 amounted to 3.49 nM.
With `CN(Cc1n[nH]c2c1CCCC2)C(=O)c1nc(Cc2ccccc2)n(-c2ccc(S(N)(=O)=O)cc2)n1` [Example R-44, 1-[4-(aminosulfonyl)phenyl]-5-benzyl-N-methyl-N-(4567-tetrahydro-1H-indazol-3-ylmethyl)-1H-124-triazole-3-carboxamide], the inhibition at 0.01 µM worked out at 93%.
As for `CN(Cc1ccccc1)C(=O)c1nc(Cc2ccccc2)n(-c2ccc(S(N)(=O)=O)cc2)n1` [Example R-109, 1-[4-(aminosulfonyl)phenyl]-N5-dibenzyl-N-methyl-1H-124-triazole-3-carboxamide], under setting [2], the 50% inhibitory concentration (IC50) was determined as 3.61 nM.
Regarding `NS(=O)(=O)c1ccc(-n2nc(C(=O)NCCNc3ccccn3)nc2Cc2ccccc2)cc1` [Example R-35, 1-[4-(aminosulfonyl)phenyl]-5-benzyl-N-[2-(pyridin-2-ylamino)ethyl]-1H-124-triazole-3-carboxamide], the inhibition at 0.1 µM is 101%.
On to `CC(C)(C)N(CCC#N)C(=O)c1nc(Cc2ccccc2)n(-c2ccc(S(N)(=O)=O)cc2)n1` [Example R-96, 1-[4-(aminosulfonyl)phenyl]-5-benzyl-N-(tert-butyl)-N-(2-cyanoethyl)-1H-124-triazole-3-carboxamide], for which the 50% inhibitory concentration (IC50) under setting [2] is 3.34 nM.
